From PubChem BioAssay (NCI)
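Test compounds were applied to cells in 96-well plates for 48 hours at 5 doses. The concentration for 50% growth inhibition is given as GI50. TGI: concentration producing complete growth inhibition.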

Legend:
Test in all cases: growth of human tumour cells (NCI), 48 h
SK-OV-3 ovarian = test system: SK-OV-3 ovarian
786-0 renal = test system: 786-0 renal
HOP-92 NSCLC = test system: HOP-92 NSCLC
ACHN renal = test system: ACHN renal
BT-549 breast = test system: BT-549 breast
SF-539 CNS = test system: SF-539 CNS
KM12 colon = test system: KM12 colon
HT29 colon = test system: HT29 colon
SK-MEL-5 melanoma = test system: SK-MEL-5 melanoma
SK-MEL-2 melanoma = test system: SK-MEL-2 melanoma
COLO 205 colon = test system: COLO 205 colon
UACC-257 melanoma = test system: UACC-257 melanoma
RPMI-8226 leukemia = test system: RPMI-8226 leukemia
MDA-MB-231 breast = test system: MDA-MB-231 breast
DU-145 prostate = test system: DU-145 prostate
HCT-15 colon = test system: HCT-15 colon
SNB-75 CNS = test system: SNB-75 CNS
OVCAR-5 ovarian = test system: OVCAR-5 ovarian
CCRF-CEM leukemia = test system: CCRF-CEM leukemia
CAKI-1 renal = test system: CAKI-1 renal
RXF 393 renal = test system: RXF 393 renal
K-562 leukemia = test system: K-562 leukemia
HL-60(TB) leukemia = test system: HL-60(TB) leukemia
A498 renal = test system: A498 renal
SW-620 colon = test system: SW-620 colon
UACC-62 melanoma = test system: UACC-62 melanoma
SK-MEL-28 melanoma = test system: SK-MEL-28 melanoma

In the case of `COc1ccc(N2CCN(c3nc(-c4ccccn4)nc4sc5c(c34)CCCCCC5)CC2)cc1`, the GI50 (SK-OV-3 ovarian) is reported as over 100 µM, the TGI (SK-OV-3 ovarian) is reported as over 100 µM and the GI50 (786-0 renal) is reported as 8.45 µM. For the same compound, the TGI (786-0 renal) was over 100 µM, the GI50 (HOP-92 NSCLC) was 3.24 µM and the TGI (HOP-92 NSCLC) was over 100 µM. The GI50 (ACHN renal) was 5.09 µM, the TGI (ACHN renal) was over 100 µM and the GI50 (BT-549 breast) was 6.92 µM. The TGI (BT-549 breast) was over 100 µM, the GI50 (SF-539 CNS) was 66.9 µM and the TGI (SF-539 CNS) was over 100 µM. For the same compound, the GI50 (KM12 colon) was 5.15 µM, the TGI (KM12 colon) was over 100 µM and the GI50 (HT29 colon) was 5.06 µM. For the same compound, the TGI (HT29 colon) was over 100 µM, the GI50 (SK-MEL-5 melanoma) was 2.85 µM and the TGI (SK-MEL-5 melanoma) was over 100 µM. For the same compound, the GI50 (SK-MEL-2 melanoma) was 18.3 µM, the TGI (SK-MEL-2 melanoma) was over 100 µM and the GI50 (COLO 205 colon) was 5.61 µM. It also gave a TGI (COLO 205 colon) of over 100 µM, a GI50 (UACC-257 melanoma) of 7.22 µM and a TGI (UACC-257 melanoma) of over 100 µM. The GI50 (RPMI-8226 leukemia) was 3.74 µM, the TGI (RPMI-8226 leukemia) was over 100 µM and the GI50 (MDA-MB-231 breast) was 49.6 µM. It also gave a TGI (MDA-MB-231 breast) of over 100 µM, a GI50 (DU-145 prostate) of 27.9 µM and a TGI (DU-145 prostate) of over 100 µM. For the same compound, the GI50 (HCT-15 colon) was 4.26 µM, the TGI (HCT-15 colon) was over 100 µM and the GI50 (SNB-75 CNS) was 26.1 µM. It also gave a TGI (SNB-75 CNS) of over 100 µM, a GI50 (OVCAR-5 ovarian) of 51.7 µM and a TGI (OVCAR-5 ovarian) of over 100 µM. It also gave a GI50 (CCRF-CEM leukemia) of 4.32 µM, a TGI (CCRF-CEM leukemia) of over 100 µM and a GI50 (CAKI-1 renal) of 5.4 µM. For the same compound, the TGI (CAKI-1 renal) was over 100 µM, the GI50 (RXF 393 renal) was over 100 µM and the TGI (RXF 393 renal) was over 100 µM. The GI50 (K-562 leukemia) was 4.15 µM, the TGI (K-562 leukemia) was over 100 µM and the GI50 (HL-60(TB) leukemia) was 4.05 µM. It also gave a TGI (HL-60(TB) leukemia) of 34 µM, a GI50 (A498 renal) of 3.3 µM and a TGI (A498 renal) of over 100 µM. It also gave a GI50 (SW-620 colon) of 5.08 µM, a TGI (SW-620 colon) of over 100 µM and a GI50 (UACC-62 melanoma) of 6.86 µM. It also gave a TGI (UACC-62 melanoma) of over 100 µM, a GI50 (SK-MEL-28 melanoma) of over 100 µM and a TGI (SK-MEL-28 melanoma) of over 100 µM.
